From ChEMBL document CHEMBL3886587, “Antagonists of prostaglandin EP3 receptor” (2016) come the findings set out here.

The target in the assay is T1, Prostaglandin E2 receptor EP3 subtype (Homo sapiens, UniProt P43115).
T1 sequence (P43115 whole entry): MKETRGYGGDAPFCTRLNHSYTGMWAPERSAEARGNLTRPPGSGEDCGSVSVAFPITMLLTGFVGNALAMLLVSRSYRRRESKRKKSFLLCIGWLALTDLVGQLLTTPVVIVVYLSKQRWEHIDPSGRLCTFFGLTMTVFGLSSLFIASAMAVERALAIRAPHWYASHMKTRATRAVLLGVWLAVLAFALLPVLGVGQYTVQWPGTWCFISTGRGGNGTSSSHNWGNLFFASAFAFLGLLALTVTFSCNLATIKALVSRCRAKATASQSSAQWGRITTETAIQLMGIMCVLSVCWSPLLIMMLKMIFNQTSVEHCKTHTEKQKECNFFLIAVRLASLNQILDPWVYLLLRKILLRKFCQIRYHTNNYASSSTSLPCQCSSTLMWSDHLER
Description: EP3 Radioligand SPA Binding Assay: Test compounds were half log serially diluted in 100% DMSO (J. T. Baker #922401). 1 uL of each compound was added to appropriate wells of a 384-well plate (Matrix Cat #4322). Unlabeled PGE2 (Tocris Cat #2296) at a final concentration of 1 uM was used to determine non-specific binding. 1 uL of 100% DMSO (J. T. Baker #922401) was used to determine total binding. Millipore EP3 Chem1 membranes (prepared in-house from cell paste derived from the Millipore ChemiSCREEN Human Recombinant EP3 Prostanoid Receptor Calcium-Optimized Stable Cell Line (Millipore Cat #HTS092C. http://www.millipore.com/catalogue/item/hts092c)) were thawed and diluted in binding buffer (50 mM Hepes pH 7.4 (Lonza Cat #17-737), 5 mM MgCl2 (Sigma-M1028), and 0.1% BSA (Sigma A-7409)) to a final concentration of 1 ug/25 uL. 25 uL of diluted membranes were added to prepared compound plates. WGA coated PVT SPA Beads (Perkin Elmer Cat #RPNQ0060) were diluted in binding buffer to a concentration of 4 ug/ul, and 25 uL of the SPA bead mixture was then added to each well for a final assay concentration of 100 ug/well. [3H]-PGE2 (Perkin Elmer Cat #NET428) was diluted in binding buffer to a concentration of […], and 25 uL was added to all wells for a final assay concentration of 1.125 nM. Plates were incubated for 30 minutes at r.t. (approximately 25° C.) with shaking. […].

For orientation: Ki means the equilibrium dissociation constant of an inhibitor or competing ligand from its target.

Structures are written as SMILES.

As to `Cn1ncc2c(F)cc(-c3ccc([C@@]4(C)CCCNC4=O)c(=O)[nH]3)cc21`, the Ki amounted to 13.9 nM.
